This passage reports IC50 results from patent US11891377B1, “Pyrrolo[3,2-c][2,7]naphthyridine-2-carboxylic acid compounds as CK2 inhibitors” (KING FAISAL UNIVERSITY, priority 2023, dated 2024).

The test system of assay [1] is MIAPaCa-2 (pancreas). The experiment in a line: In vitro cytotoxic activity (MTT) assay, MIAPaCa-2. Type of assay: cell-based. Conditions: Homo sapiens, MIA PaCa-2; MIAPaCa-2 cells, exposed for 96 hours; read-out: IC50, 50% inhibition of cell proliferation, MIAPaCa-2 (pancreas). Here is the method: (§1) Compounds 1-16 were screened for their in vitro cytotoxic activity utilizing a 3-(4,5-dimethyl-thiazol-2-yl)-2,5-diphenyltetrazolium bromide (MTT) assay against selected cancer human cell lines consisting of PC3 (prostate), HCT116 (colon), A375 (melanoma), H1299 (lung), MIAPaCa-2 (pancreas), HL60 (leukemia), MCF7 (breast), MDA-MB-231 (breast) (T. Mosmann, J. Immunol. Meth., 1983, 65, 55-63). The cells were cultured at 37° C. in RMPI1640 medium supplemented with 10% fetal bovine serum, 50 IU/mL penicillin, and 50 μg/mL streptomycin in a 5% CO2 incubator. All cells were sub-cultured 3 times/week by trypsinisation. Viable cells were seeded and allowed to adhere for 12 h before a test drug was added in 96-well plates at an initial density of 1.0×10^5 cells/mL. Tumour cell lines were separately exposed to various concentrations of the tested compounds followed by incubation at a temperature of 37° C. during 96 h inside a medium of fresh RMPI 1640. Cells were subsequently incubated at 37° C. using MTT at 0.5 mg/mL during 4 h. After removal of supernatant, formazan crystals were dissolved in isopropanol and the optical density was measured at 570 nm. CX-4945 was used as a positive control.

Assay [2] has as its system MCF7 (breast). Kind of assay: In vitro cytotoxic activity (MTT) assay, MCF7. The class given is cell-based. Particulars: Homo sapiens; MCF7 cells, exposed for 96 hours; read-out: IC50, 50% inhibition of cell proliferation, MCF7 (breast). Here is the method: as §1
Assay [3] deals with A375 (melanoma). The experiment in a line: In vitro cytotoxic activity (MTT) assay, A375. Particulars: Homo sapiens, A-375; A375 cells, exposed for 96 hours; read-out: IC50, 50% inhibition of cell proliferation, A375 (melanoma). The class given is cell-based. On the procedure: as §1
Assay [4] has as its system PC3 (prostate). The experiment in a line: In vitro cytotoxic activity (MTT) assay, PC3. The class given is cell-based. Conditions: Homo sapiens, PC-3; PC3 cells, exposed for 96 hours; read-out: IC50, 50% inhibition of cell proliferation, PC3 (prostate). Here is the method: as §1
Assay [5] deals with T1, recombinant human CK2 (RRββ-holoenzyme) (Homo sapiens, UniProt P68400).
T1 construct: purchased Millipore
T1 sequence (P68400 whole entry): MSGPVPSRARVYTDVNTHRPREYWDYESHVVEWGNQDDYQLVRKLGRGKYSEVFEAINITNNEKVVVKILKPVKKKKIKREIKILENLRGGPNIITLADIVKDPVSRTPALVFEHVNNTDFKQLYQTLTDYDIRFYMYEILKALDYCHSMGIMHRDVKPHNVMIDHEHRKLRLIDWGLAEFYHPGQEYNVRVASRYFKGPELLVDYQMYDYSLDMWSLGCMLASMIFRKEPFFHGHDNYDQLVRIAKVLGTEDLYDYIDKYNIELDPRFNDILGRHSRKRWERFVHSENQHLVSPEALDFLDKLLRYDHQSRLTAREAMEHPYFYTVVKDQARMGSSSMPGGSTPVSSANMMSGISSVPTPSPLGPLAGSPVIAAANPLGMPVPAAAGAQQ
T1 sequence (P67870 whole entry partner): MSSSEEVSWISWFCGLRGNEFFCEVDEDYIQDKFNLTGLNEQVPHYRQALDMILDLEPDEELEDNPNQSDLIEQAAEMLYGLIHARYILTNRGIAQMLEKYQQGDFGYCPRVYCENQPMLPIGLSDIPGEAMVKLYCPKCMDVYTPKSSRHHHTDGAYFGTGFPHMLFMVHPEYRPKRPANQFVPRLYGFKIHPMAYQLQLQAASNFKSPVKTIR
The experiment in a line: CK2 Kinase Assay (radiometric, [γ-33P]ATP). Type of assay: biochemical. Conditions: final ATP concentration 15 μM, 10 min at 30° C.; read-out: protein kinase CK2 IC50. On the procedure:
CK2 Kinase Assay was conducted using the protocol as described in Pierre F. et al; J. Med. Chem. 2011, 54, 635-654. The tested compounds in aqueous solution were added at a volume of 10 μL to a reaction mixture comprising 10 μL of assay dilution buffer (ADB; 20 mM MOPS, pH 7.2, 25 mM β-glycerol phosphate, 5 mM EGTA, 1 mM sodium orthovanadate, and 1 mM dithiothreitol), 10 μL of substrate peptide (RRRDDDSDDD, dissolved in ADB at a concentration of 1 mM), 10 μL of recombinant human CK2 (RRββ-holoenzyme, 25 ng dissolved in ADB; Millipore). Reactions were initiated by the addition of 10 μL of ATP solution (90% 75 mMMgCl2, 75 μM ATP (final ATP concentration: 15 μM) dissolved in ADB; 10% [γ-33P] ATP (stock 1 mCi/100 μL; 3000 Ci/mmol (Perkin-Elmer) and maintained for 10 min at 30° C. The reactions were quenched with 100 μL of 0.75% phosphoric acid and then transferred to and filtered through a phosphor cellulose filter plate (Millipore). After washing each well five times with 0.75% phosphoric acid, the plate was dried under vacuum for 5 min and, following the addition of 15 μL of scintillation fluid to each well, the residual radioactivity was measured using a Wallac luminescence counter. The ICso values were derived from eight concentrations of test inhibitors.

The test system of assay [6] is HL60 (leukemia). Kind of assay: In vitro cytotoxic activity (MTT) assay, HL60. Type of assay: cell-based. Conditions: Homo sapiens, HL-60; HL60 cells, exposed for 96 hours; read-out: IC50, 50% inhibition of cell proliferation, HL60 (leukemia). Here is the method:
as §1

The subject of assay [7] is HCT116 (colon). Kind of assay: In vitro cytotoxic activity (MTT) assay, HCT116. The class given is cell-based. Particulars: Homo sapiens, HCT-116; HCT116 cells, exposed for 96 hours; read-out: IC50, 50% inhibition of cell proliferation, HCT116 (colon). Here is the method:
as §1

For assay [8], the system named is H1299 (lung). The experiment in a line: In vitro cytotoxic activity (MTT) assay, H1299. Type of assay: cell-based. Conditions: Homo sapiens, NCI-H1299; H1299 cells, exposed for 96 hours; read-out: IC50, 50% inhibition of cell proliferation, H1299 (lung). Here is the method:
as §1

For assay [9], the system named is MDA-MB-231 (breast). Kind of assay: In vitro cytotoxic activity (MTT) assay, MDA-MB-231. Type of assay: cell-based. Conditions: Homo sapiens; MDA-MB-231 cells, exposed for 96 hours; read-out: IC50, 50% inhibition of cell proliferation, MDA-MB-231 (breast). On the procedure: as §1

In the case of `O=C(O)c1cc2nc(Nc3cccc(Cl)c3)c3cnccc3c2[nH]1` [Compound 1, 5-((3-chlorophenyl)amino)-1H-pyrrolo[3,2-c][2,7]naphthyridine-2-carboxylic Acid], the IC50 in [1] turned out to be 1100 nM; in assay [2], 3900 nM; in [3], 2500 nM; in [4], 2100 nM; in assay [5], 35 nM; in assay [6], 2600 nM. The IC50 in assay [7] is 1300 nM; in [8], 1200 nM; in assay [9], 3300 nM.
